For test [1], the target named is T1, CDK12 (nuclear staining in CAL-120 cells) (Homo sapiens, UniProt Q9NYV4).
T1 construct: endogenous in cells; host or cells: CAL-120 human breast cancer cells (DSMZ ACC 459)
Nature of the test: CDK12 nuclear protein level: immunofluorescence/high content analysis (CAL-120). It counts as cell-based. Conditions: for DC50: CAL-120 cells, 24 h, immunofluorescence, 50% reduction of nuclear CDK12 staining intensity, median, read-out: CDK12 degradation IF, DC50- [mol/l] (median); for (IC50 CDK12 high ATP) to (Degradation DC50 CDK12) ratio: ratio of IC50 CDK12 high ATP kinase assay to DC50 CDK12 degradation (IF, CAL-120). How it is done:
In the context of the present invention, the term “DC50 CDK12” refers to the DC50 values obtained according to the assay described in this section (7) herein below, i.e. the DC50 values for the degradation of CDK12.
Plates are then incubated for 24 h at 37° C. in an humidified incubator and fixed with 4% PFA for 10 min. […] Nuclear and cytoplasmic intensity as well as the nuclear/cytoplasmic intensity ratio is determined by automated image analysis using custom generated scripts (MetaXpress). Data is then transferred to Genedata Screener software, normalized to DMSO and control and DC50 values (degrading concentration to achieve 50% reduction of nuclear CDK12 staining intensity relative to controls) are reported.

For test [2], the system named is BRCA1 mRNA expression in MDA-MB-231 cells. Nature of the test: qRT-PCR assay: BRCA1 mRNA expression in MDA-MB-231. To be noted: Homo sapiens, MDA-MB-231, Inhibition of BRCA1 mRNA expression in MDA-MB-231 cells; median; read-out: RTqPCR-MDA-MB-231, IC50, BRCA1 (median). It counts as cell-based, human. As for the experimental part: 3. qRT-PCR Assay: BRCA, ATR, MCL1 in MDA-MB-231, CAL-120
Tissue cultured human MDA-MB-231 human breast cancer cells were plated in 500 microL per well at 200,000 cells/well in a 24 well microtiter plate. After 24 h, the cells were exposed continuously for 24 h to test substances (substances were added with Tecan HP 0300 Dispenser). RNA was prepared using Qiagen RNeasy MiniKit (#74106), RNA was quantified using a NanoDrop Equipment, and 600 nano gamms of RNA was coverted to cDNA using a SuperScript VILO kit (Thermofisher #11755050) followed by qPCR amplification. BRCA1 and ATR gene expression was measured by RT-qPCR and normalised to GAPDH housekeeping gene expression. qPCR primer sets have been purchased from Thermo Fisher Scientific/Applied Biosystems: BRCA1, #Hs 01556193; ATR, #Hs 00992123; GAPDH, #Hs 03929097.
A general note: Real-time PCR tracks product formation cycle by cycle.

Test [3] deals with T2, CDK9/CycT1 (Homo sapiens, UniProt P50750).
T2 construct: Recombinant full-length His-tagged human CDK9 and CycT1; purchased Life Technologies PV4131; host or cells: insect cells
Nature of the test: CDK9/CycT1 high ATP kinase assay (TR-FRET, 2 mM ATP). It counts as biochemical. To be noted: 2 mM ATP (high ATP); median; read-out: CDK9/CyclinT1, 2 mM ATP (high ATP), IC50 (median). How it is done: CDK9/CycT1-inhibitory activity of compounds of the present invention at a high ATP concentration after preincubation of enzyme and test compounds was quantified employing the CDK9/CycT1 TR-FRET assay as described in the following paragraphs.
Recombinant full-length His-tagged human CDK9 and CycT1, expressed in insect cells and purified by Ni-NTA affinity chromatography, were purchased from Life Technologies (Cat. No PV4131). As substrate for the kinase reaction biotinylated peptide biotin-Ttds-[…] (C-terminus in amide form) was used which can be purchased e.g. form the company JERINI peptide technologies (Berlin, Germany).
For the assay 50 nanoL of a 100 fold concentrated solution of the test compound in DMSO was pipetted into either a black low volume 384 well microtiter plate or a black 1536 well microtiter plate (both Greiner Bio-One, Frickenhausen, Germany), 2 microL of a solution of CDK9/CycT1 in aqueous assay buffer [50 millimol/L Tris/HCl pH 8.0, 10 millimol/L MgCl2, 1.0 millimol/L dithiothreitol, 0.1 millimol/L sodium ortho-vanadate, 0.01% (v/v) Nonidet-P40 (Sigma)] were added and the mixture was incubated for 15 min at 22° C. to allow pre-binding of the test compounds to the enzyme before the start of the kinase reaction. […] The concentration of CDK9/CycT1 was adjusted depending of the activity of the enzyme lot and was chosen appropriate to have the assay in the linear range, typical concentrations were in the range of 0.5 microg/ml.
The resulting mixture was incubated 1 h at 22° C. to allow the formation of complex between the phosphorylated biotinylated peptide and the detection reagents. Subsequently the amount of phosphorylated substrate was evaluated by measurement of the resonance energy transfer from the Eu-chelate to the streptavidine-XL. Therefore, the fluorescence emissions at 620 nm and 665 nm after excitation at 350 nm was measured in a TR-FRET reader, e.g. a Pherastar (BMG Labtechnologies, Offenburg, Germany) or a Viewlux (Perkin-Elmer). The ratio of the emissions at 665 nm and at […] was taken as the measure for the amount of phosphorylated substrate.
(Time-resolved FRET reads energy transfer from a long-lived donor to a nearby acceptor.)

Test [4] deals with T3, CYCLIN K (nuclear staining in CAL-120 cells) (Homo sapiens, UniProt O75909).
T3 construct: endogenous in cells; host or cells: CAL-120 human breast cancer cells (DSMZ ACC 459)
Nature of the test: CYCLIN K nuclear protein level: immunofluorescence high content analysis (CAL-120). It counts as cell-based. Conditions: 24 h, 50% reduction of nuclear CCNK staining intensity, median, read-out: CYCLIN K degradation IF, DC50-[mol/l] (median). How it is done:
8. CYCLIN K nuclear protein level: immunofluorescence High Content Analysis
CAL-120 human breast cancer cells (DSMZ ACC 459) are seeded in 1536-well microtiter plates (800 cells per well) containing 50 nanoL of compounds in Dose-Response. Control wells received DMSO or Example 4. Plates are then incubated for 24 h at 37° C. in an humidified incubator and fixed with 4% PFA for 10 min. Then immunofluorescence (IF) against CYCLIN K (ThermoFisher Scientific CONK Antibody #PA5-85020, rabbit, 1:200 dilution) is performed using standard IF protocols. Cells are then stained with Hoechst 33342 (Life Technologies, H-1399, 0.1 microg/ml) and imaged on an automated confocal microscopy system (e.g. Perkin Elmer Opera Phenix). Nuclear and cytoplasmic intensity as well as the nuclear/cytoplasmic intensity ratio is determined by automated image analysis using custom generated scripts (MetaXpress). Data is then transferred to Genedata Screener software, normalized to DMSO and control and DC50 values (degrading concentration to achieve 50% reduction of nuclear CCNK staining intensity relative to controls) are reported.

Where only a bound is given, the exact number is not on record here.

T1 sequence (Q9NYV4 whole entry): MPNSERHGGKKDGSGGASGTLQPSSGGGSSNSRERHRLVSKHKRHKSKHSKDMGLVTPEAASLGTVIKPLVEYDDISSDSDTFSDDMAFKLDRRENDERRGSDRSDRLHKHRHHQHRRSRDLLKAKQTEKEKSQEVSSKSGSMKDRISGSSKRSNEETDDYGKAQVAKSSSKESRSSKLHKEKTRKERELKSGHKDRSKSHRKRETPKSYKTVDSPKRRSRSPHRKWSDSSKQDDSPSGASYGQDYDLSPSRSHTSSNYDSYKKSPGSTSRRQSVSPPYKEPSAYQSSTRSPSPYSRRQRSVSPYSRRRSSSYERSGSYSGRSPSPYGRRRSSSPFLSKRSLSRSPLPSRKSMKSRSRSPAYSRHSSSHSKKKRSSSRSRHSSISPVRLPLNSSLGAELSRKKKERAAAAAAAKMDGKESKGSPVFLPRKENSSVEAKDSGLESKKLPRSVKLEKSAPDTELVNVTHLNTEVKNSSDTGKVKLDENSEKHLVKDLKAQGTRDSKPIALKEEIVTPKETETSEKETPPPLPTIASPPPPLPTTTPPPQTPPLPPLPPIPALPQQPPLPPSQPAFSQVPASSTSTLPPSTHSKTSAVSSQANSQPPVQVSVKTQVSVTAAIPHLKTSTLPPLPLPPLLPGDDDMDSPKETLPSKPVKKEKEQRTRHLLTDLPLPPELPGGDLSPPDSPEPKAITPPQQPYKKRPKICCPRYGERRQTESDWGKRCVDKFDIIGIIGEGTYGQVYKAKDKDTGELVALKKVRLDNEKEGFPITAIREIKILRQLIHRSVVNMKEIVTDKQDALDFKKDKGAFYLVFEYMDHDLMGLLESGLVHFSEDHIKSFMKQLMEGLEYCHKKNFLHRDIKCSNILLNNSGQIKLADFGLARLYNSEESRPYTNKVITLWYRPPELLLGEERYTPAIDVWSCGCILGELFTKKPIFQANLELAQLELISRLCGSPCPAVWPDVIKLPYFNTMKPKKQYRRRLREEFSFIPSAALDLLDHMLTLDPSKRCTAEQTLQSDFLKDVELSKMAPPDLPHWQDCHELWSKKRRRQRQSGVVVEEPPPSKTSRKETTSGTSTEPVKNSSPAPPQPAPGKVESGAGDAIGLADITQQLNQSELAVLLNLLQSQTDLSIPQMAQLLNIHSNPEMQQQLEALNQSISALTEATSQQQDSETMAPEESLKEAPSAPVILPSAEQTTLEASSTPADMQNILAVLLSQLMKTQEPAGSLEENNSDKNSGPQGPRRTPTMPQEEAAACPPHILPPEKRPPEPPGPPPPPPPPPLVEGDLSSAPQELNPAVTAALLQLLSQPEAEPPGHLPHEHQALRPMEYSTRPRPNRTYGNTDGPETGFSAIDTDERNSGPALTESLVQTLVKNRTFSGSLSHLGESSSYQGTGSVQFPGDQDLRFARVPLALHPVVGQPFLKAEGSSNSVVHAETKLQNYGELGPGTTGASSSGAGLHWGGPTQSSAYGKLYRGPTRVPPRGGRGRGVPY
T1 sequence (O75909 whole entry partner): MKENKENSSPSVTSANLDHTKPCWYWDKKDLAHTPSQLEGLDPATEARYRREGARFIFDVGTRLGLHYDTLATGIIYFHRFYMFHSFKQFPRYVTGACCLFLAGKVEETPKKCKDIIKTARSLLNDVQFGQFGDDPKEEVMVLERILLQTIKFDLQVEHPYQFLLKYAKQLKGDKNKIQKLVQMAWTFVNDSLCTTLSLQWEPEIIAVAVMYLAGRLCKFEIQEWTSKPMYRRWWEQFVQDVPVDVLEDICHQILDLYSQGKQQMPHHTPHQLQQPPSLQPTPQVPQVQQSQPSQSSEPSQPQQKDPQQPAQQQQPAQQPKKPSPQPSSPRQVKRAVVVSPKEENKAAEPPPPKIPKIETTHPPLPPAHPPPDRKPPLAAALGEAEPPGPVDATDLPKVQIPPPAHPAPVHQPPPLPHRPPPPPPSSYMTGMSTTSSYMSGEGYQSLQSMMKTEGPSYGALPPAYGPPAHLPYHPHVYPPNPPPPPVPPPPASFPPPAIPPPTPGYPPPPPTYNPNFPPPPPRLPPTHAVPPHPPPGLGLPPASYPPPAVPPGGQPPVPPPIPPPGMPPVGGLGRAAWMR
T3 sequence (O75909 whole entry): as the sequence (O75909 whole entry partner) above
T3 sequence (Q9NYV4 whole entry partner): as the sequence (Q9NYV4 whole entry) above
T2 sequence (P50750 whole entry): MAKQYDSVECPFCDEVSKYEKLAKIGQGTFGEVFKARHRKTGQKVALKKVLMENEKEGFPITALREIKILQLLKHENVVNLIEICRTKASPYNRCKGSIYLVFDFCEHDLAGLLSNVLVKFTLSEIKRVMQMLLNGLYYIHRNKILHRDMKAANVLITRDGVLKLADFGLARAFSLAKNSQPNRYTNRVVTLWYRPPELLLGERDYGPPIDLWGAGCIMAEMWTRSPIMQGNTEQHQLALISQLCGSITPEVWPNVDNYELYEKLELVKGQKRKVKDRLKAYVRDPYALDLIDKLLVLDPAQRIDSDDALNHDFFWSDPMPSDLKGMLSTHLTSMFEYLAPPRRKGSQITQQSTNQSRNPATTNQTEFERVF
T2 sequence (O60563 whole entry partner): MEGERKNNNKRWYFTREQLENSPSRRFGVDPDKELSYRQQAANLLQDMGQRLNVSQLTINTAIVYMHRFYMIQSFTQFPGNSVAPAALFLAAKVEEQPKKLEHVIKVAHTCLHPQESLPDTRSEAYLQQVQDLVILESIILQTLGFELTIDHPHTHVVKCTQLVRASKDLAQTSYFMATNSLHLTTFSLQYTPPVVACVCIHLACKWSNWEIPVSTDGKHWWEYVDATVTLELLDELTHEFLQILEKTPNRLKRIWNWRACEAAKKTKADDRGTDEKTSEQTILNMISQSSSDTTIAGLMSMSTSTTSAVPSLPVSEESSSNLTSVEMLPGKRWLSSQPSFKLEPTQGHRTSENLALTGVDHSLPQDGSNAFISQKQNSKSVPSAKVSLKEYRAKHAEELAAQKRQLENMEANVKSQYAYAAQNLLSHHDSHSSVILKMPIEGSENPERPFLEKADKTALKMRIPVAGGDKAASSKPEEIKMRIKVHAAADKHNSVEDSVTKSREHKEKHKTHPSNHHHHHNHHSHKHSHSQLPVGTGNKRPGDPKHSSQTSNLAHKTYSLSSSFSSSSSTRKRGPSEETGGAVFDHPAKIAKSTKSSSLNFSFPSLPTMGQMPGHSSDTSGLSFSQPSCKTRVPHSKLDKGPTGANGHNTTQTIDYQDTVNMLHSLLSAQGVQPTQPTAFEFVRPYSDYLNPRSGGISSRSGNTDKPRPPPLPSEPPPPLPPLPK

`Clc1ccccc1-c1cnc(CNc2nc(N3CCOCC3)nc3c(Br)cnn23)[nH]1` [Example 96, 8-bromo-N-{[5-(2-chlorophenyl)-1H-imidazol-2-yl]methyl}-2-(morpholin-4-yl)pyrazolo[1,5-a][1,3,5]triazin-4-amine]: the DC50 in test [1] came out at 5.73 nM; in test [4], 10.7 nM. Also, in test [1], the “(IC50 CDK12 high ATP) to (Degradation DC50 CDK12) ratio” value amounted to 812. In addition, the IC50 in test [2] was found to be 29.4 nM; in test [3] it was 9300 nM.
For `C[C@@H]1CN(c2nc(NCc3nc4ccccc4[nH]3)n3ncc(Br)c3n2)C[C@H](C)N1` [Example 142, N-(1H-benzimidazol-2-ylmethyl)-8-bromo-2-[(3R,5S)-3,5-dimethylpiperazin-1-yl]pyrazolo[1,5-a][1,3,5]triazin-4-amine] the same measures were 1.62 nM, 0.163 nM, 6679, 19.1 nM and over 20000 nM.
Taken in the same sequence, the figures for `Cc1ccc2[nH]c(CNc3nc(N4CCN(C)CC4)nc4c(Br)cnn34)nc2c1` [Example 158, 8-bromo-N-[(5-methyl-1H-benzimidazol-2-yl)methyl]-2-(4-methylpiperazin-1-yl)pyrazolo[1,5-a][1,3,5]triazin-4-amine] were 0.536 nM, 0.367 nM, 8313, 0.883 nM and over 20000 nM.
Taken in the same sequence, the figures for `CN1CCN(c2nc(NCc3nc4c(F)c(F)ccc4[nH]3)n3ncc(Br)c3n2)CC1` [Example 133, 8-bromo-N-[(4,5-difluoro-1H-benzimidazol-2-yl)methyl]-2-(4-methylpiperazin-1-yl)pyrazolo[1,5-a][1,3,5]triazin-4-amine] were 0.846 nM, 0.0633 nM, 8279, 4.23 nM and over 20000 nM.
`Fc1cc(-c2nnc(CNc3nc(N4CCOCC4)nc4c(Br)cnn34)[nH]2)cc(F)c1F` [Example 100, 8-bromo-2-(morpholin-4-yl)-N-{[5-(3,4,5-trifluorophenyl)-4H-1,2,4-triazol-3-yl]methyl}pyrazolo[1,5-a][1,3,5]triazin-4-amine]: the values for the DC50 in test [1] and in test [4] were 10.2 nM and 7.4 nM, respectively. In addition, the “(IC50 CDK12 high ATP) to (Degradation DC50 CDK12) ratio” value in test [1] came out at 122. Besides, the IC50 in test [2] was 62.2 nM; in test [3], 820 nM.
Regarding `[O-][S+]1CCN(c2nc(NCc3nc4ccccc4[nH]3)n3ncc(Br)c3n2)CC1` [Example 144, 4-(4-{[(1H-benzimidazol-2-yl)methyl]amino}-8-bromopyrazolo[1,5-a][1,3,5]triazin-2-yl)-1lambda^4-thiomorpholin-1-one], in test [1], the DC50 came out at 6.32 nM and the “(IC50 CDK12 high ATP) to (Degradation DC50 CDK12) ratio” value came out at 590. The IC50 in test [2] amounted to 83.3 nM. Besides, the IC50 in test [3] was over 20000 nM.
Consider `CC(C)c1cnn2c(NCc3nc4ccccc4[nH]3)nc(N3CC4(COC4)C3)nc12` [Example 9, N-[(1H-benzimidazol-2-yl)methyl]-2-(2-oxa-6-azaspiro[3.3]heptan-6-yl)-8-(propan-2-yl)pyrazolo[1,5-a][1,3,5]triazin-4-amine], for which, in test [1], the DC50 is 80.9 nM and the “(IC50 CDK12 high ATP) to (Degradation DC50 CDK12) ratio” value is given as over 247. For the same compound, the IC50 in test [2] came to 255 nM. Moreover, in test [3], the IC50 is over 20000 nM.
For `Brc1cnn2c(NCc3nc4ccccc4[nH]3)nc(N3CCN4CCC[C@@H]4C3)nc12` [Example 149, N-[(1H-benzimidazol-2-yl)methyl]-8-bromo-2-[(8aR)-hexahydropyrrolo[1,2-a]pyrazin-2 (1 H)-yl]pyrazolo[1,5-a][1,3,5]triazin-4-amine] the same measures were 12.6 nM, 495, 148 nM and over 20000 nM.
For `c1ccc(-c2cnn3c(NCc4nc5ccccc5[nH]4)nc(N4CCOCC4)nc23)cc1` [Example 104, N-[(1H-benzimidazol-2-yl)methyl]-2-(morpholin-4-yl)-8-phenylpyrazolo[1,5-a][1,3,5]triazin-4-amine] the same measures were 15.7 nM, over 1272, 30 nM and over 20000 nM.
On to `CC1CN(C)CCN1c1nc(NCc2nc3ccccc3[nH]2)n2ncc(Br)c2n1` (centres unmarked) [Example 156, N-(1H-benzimidazol-2-ylmethyl)-8-bromo-2-(2,4-dimethylpiperazin-1-yl)pyrazolo[1,5-a][1,3,5]triazin-4-amine], for which, in test [1], the DC50 amounted to 1.06 nM and the “(IC50 CDK12 high ATP) to (Degradation DC50 CDK12) ratio” value amounted to 8849. Besides, the IC50 in test [3] is over 20000 nM. For the same compound, the DC50 in test [4] turned out to be 0.249 nM.
For the compound `N=S1(=O)CCN(c2nc(NCc3nc4ccccc4[nH]3)n3ncc(Br)c3n2)CC1` [Example 145, 4-(4-{[(1H-benzimidazol-2-yl)methyl]amino}-8-bromopyrazolo[1,5-a][1,3,5]triazin-2-yl)-1-imino-1lambda^6-thiomorpholin-1-one], in test [1], the DC50 is 16.8 nM. In addition, the “(IC50 CDK12 high ATP) to (Degradation DC50 CDK12) ratio” value in test [1] stood at 751. In addition, the IC50 in test [2] was 190 nM; in test [3] it was over 20000 nM.
Taken in the same sequence, the figures for `NCCc1ccc2[nH]c(CNc3nc(N4CCOCC4)nc4c(Br)cnn34)nc2c1.O=CO` [Example 113, formic acid-N-{[5-(2-aminoethyl)-1H-benzimidazol-2-yl]methyl}-8-bromo-2-(morpholin-4-yl)pyrazolo[1,5-a][1,3,5]triazin-4-amine (1/1)] were 8.64 nM, 197, 21.1 nM and over 18900 nM.

The values are drawn from patent publication US20230117034A1, “PYRAZOLOTRIAZINES” (Bayer Aktiengesellschaft, priority 2019, published 2023).
